Test results reported in PubChem BioAssay AID1963870 (Molecular Pharmacology Branch, DTP, NCI, 2024).

Test system: 292921-168-R-J2-PDC KRAS tumor spheroid viability
Assay: Anticancer human tumor 292921-168-R-J2-PDC patient-derived pancreatic carcinoma cell line growth inhibition [KRAS2]
Conditions: spheroids with HUVEC and MSC; for IC50: curve of first compound; for viability, T/C: stronger effect = lower value
From the text: Multicellular complex tumor spheroid response to RAS pathway inhibitors in combination with a targeted agents in patient-derived cell lines with oncogenic KRAS variants from multiple cancer types
A high-throughput screen of multi-cell type tumor spheroids was designed to identify active combinations of targeted small molecules and KRAS pathway inhibitors. Complex spheroids include a stromal component modeled by human endothelial cells (HUVEC) and fibroblasts modeled by human mesenchymal stem cells (MSCs). The concentration ranges selected for each drug and investigational agent were based upon clinically achievable concentrations if the clinical Cmax of the agent was known.
Compounds. The drugs and investigational agents: BI-3406 (NSC825286), BAY-293 (NSC824723), batoprotafib (TNO155; NSC825523), sotorasib (AMG 510; NSC818433), MRTX1257 (NSC819558), elimusertib (BAY 1895344; NSC800525), molibresib (GSK525762; NSC774829), temuterkib (LY3214996; NSC803410), venetoclax (NSC766270), alisertib (NSC759677), olaparib (NSC753686), talazoparib (NSC767125), erdafitinib (NSC781556), ipatasertib (NSC767898), cabozantinib (NSC761068), nintedanib (NSC756659), abemaciclib (NSC768073), docetaxel (NSC628503), trametinib (NSC758246), and sapanisertib (NSC764658) were obtained from the National Cancer Institute (NCI) Developmental Therapeutics Program Chemical Repository. The FDA-approved anticancer drug set is available from the Developmental Therapeutics Program. […] The stock solutions were prepared in dimethyl sulfoxide (DMSO, Sigma-Aldrich, St. Louis, MO, cat. D2650) at 800-fold the tested concentration and stored at -70 degrees C prior to their use. All drugs and investigational agents were tested over a range starting from a high concentration at or near the clinical Cmax and decreasing in half-log increments. If the clinical Cmax for an agent had not been determined, the highest concentration tested was 10 microM.
Cell Culture. All cells were maintained in an incubator at 37 degrees C and 5% CO2 with 95% humidity. The PDC lines were cultured according to standard operating procedures established by the NCI PDMR (https://pdmr.cancer.gov/sops/default.htm). Briefly, all PDCs were thawed and cultured in Matrigel-coated flasks prepared with a working solution of 1X Ham's F-12 nutrient mix, without supplementation (Invitrogen, Waltham, MA, cat. 11765054), 100 U/mL penicillin-streptomycin (Invitrogen, cat. 15140122), and 2.5% Matrigel (Corning Inc., Corning, NY, cat. 354248) for the first three passages. All PDCs were cultured in complete DMEM/F-12 media containing advanced DMEM/F-12 (Invitrogen, cat. 12634028), 4.9% defined fetal bovine serum, heat inactivated (HyClone Laboratories Inc., Logan, UT, cat. SH30070.03HI), 389 ng/mL hydrocortisone (Sigma-Aldrich, cat. H4001), 9.7 ng/mL human EGF recombinant protein (Invitrogen, cat. PHG0313), 23.4 microg/mL adenine (Sigma-Aldrich, cat. A2786), 97.3 U/mL penicillin-streptomycin (Invitrogen, cat. 15140122), 1.9 mM L-glutamine (Invitrogen, cat. 25030081), and 9.7 microM Y-27632 dihydrochloride (Tocris Bioscience, Bristol, United Kingdom, cat. 1254). The PDCs were cultured in complete DMEM/F12 media without 9.7 microM Y-27632 dihydrochloride for at least two passages prior to the screen. The established cell line HOP-62 was cultured in RPMI 1640 medium, HEPES (Invitrogen, cat. 22400105) with 10% defined fetal bovine serum (HyClone Laboratories Inc., cat. SH30070.03) and 2 mM L-glutamine (Invitrogen, cat. 25030081). The pooled donor HUVEC were cultured in endothelial cell growth medium 2 (PromoCell, Heidelberg, Germany, cat. C-22011) and the hMSC were cultured in mesenchymal stem cell growth medium 2 (PromoCell, cat. C-28009). For all experiments, HUVEC and hMSC were used at passages </=5, while the malignant cell lines were used at passages </=15. […]

[1] = second compound 0.1 µM, first compound 0.01 µM
[2] = second compound 0.1 µM, first compound 0.0316 µM
[3] = second compound 0.1 µM, first compound 0.1 µM
[4] = second compound 0.316 µM, first compound 0.01 µM
[5] = second compound 0.316 µM, first compound 0.0316 µM
[6] = second compound 0.316 µM, first compound 0.1 µM
[7] = second compound 1 µM, first compound 0.01 µM
[8] = second compound 1 µM, first compound 0.0316 µM
[9] = second compound 1 µM, first compound 0.1 µM
[10] = second compound 3.16 µM, first compound 0.01 µM
[11] = second compound 3.16 µM, first compound 0.0316 µM
[12] = second compound 3.16 µM, first compound 0.1 µM
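Further: drug exposure lasted seven days after spheroids formed for three days.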
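Wherever viability, T/C is given: percent of DMSO vehicle control viability which is 100%.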

SMILES: CN(C)C/C=C/C(=O)Nc1cc2c(Nc3ccc(F)c(Cl)c3)ncnc2cc1O[C@H]1CCOC1 + C=CC(=O)N1CCN(c2nc(OCC3CCCN3C)nc3c2CCN(c2cccc4cccc(C)c24)C3)CC1CC#N
- IC50 (second compound 0.0316 µM): > 100 nM
- IC50 (second compound 0.1 µM): > 100 nM
- IC50 (second compound 0.316 µM): > 100 nM
- IC50 (second compound 1 µM): 9.38 nM
- IC50 (second compound 3.16 µM): < 0.316 nM
- viability, T/C (second compound 0.0316 µM, first compound 0.000316 µM): 110%
- viability, T/C (second compound 0.0316 µM, first compound 0.001 µM): 97.6%
- viability, T/C (second compound 0.0316 µM, first compound 0.00316 µM): 89.9%
- viability, T/C (second compound 0.0316 µM, first compound 0.01 µM): 85.3%
- viability, T/C (second compound 0.0316 µM, first compound 0.0316 µM): 76.9%
- viability, T/C (second compound 0.0316 µM, first compound 0.1 µM): 71.9%
- viability, T/C (second compound 0.1 µM, first compound 0.000316 µM): 99.2%
- viability, T/C (second compound 0.1 µM, first compound 0.001 µM): 98.1%
- viability, T/C (second compound 0.1 µM, first compound 0.00316 µM): 85.3%
- viability, T/C [1]: 84.8%
- viability, T/C [2]: 71.4%
- viability, T/C [3]: 68.2%
- viability, T/C (second compound 0.316 µM, first compound 0.000316 µM): 77.3%
- viability, T/C (second compound 0.316 µM, first compound 0.001 µM): 85.3%
- viability, T/C (second compound 0.316 µM, first compound 0.00316 µM): 64.7%
- viability, T/C [4]: 60.5%
- viability, T/C [5]: 61.6%
- viability, T/C [6]: 49.3%
- viability, T/C (second compound 1 µM, first compound 0.000316 µM): 56.8%
- viability, T/C (second compound 1 µM, first compound 0.001 µM): 60%
- viability, T/C (second compound 1 µM, first compound 0.00316 µM): 50.3%
- viability, T/C [7]: 49.5%
- viability, T/C [8]: 45.5%
- viability, T/C [9]: 34.8%
- viability, T/C (second compound 3.16 µM, first compound 0.000316 µM): 0.73%
- viability, T/C (second compound 3.16 µM, first compound 0.001 µM): 1.26%
- viability, T/C (second compound 3.16 µM, first compound 0.00316 µM): 0.25%
- viability, T/C [10]: 0.27%
- viability, T/C [11]: 0.43%
- viability, T/C [12]: 0.2%

SMILES: CC1COCCN1c1cc(-c2ccnn2C)c2ccnc(-c3ccn[nH]3)c2n1 (stereo not given) + C=CC(=O)N1CCN(c2nc(=O)n(-c3c(C)ccnc3C(C)C)c3nc(-c4c(O)cccc4F)c(F)cc23)C(C)C1
- IC50 (second compound 0.1 µM): < 10 nM
- IC50 (second compound 0.316 µM): < 10 nM
- IC50 (second compound 1 µM): < 10 nM
- IC50 (second compound 3.16 µM): < 10 nM
- IC50 (second compound 10 µM): < 10 nM
- viability, T/C [1]: 41.9%
- viability, T/C [2]: 19.9%
- viability, T/C [3]: 15%
- viability, T/C (second compound 0.1 µM, first compound 0.316 µM): 13.6%
- viability, T/C (second compound 0.1 µM, first compound 1 µM): 16.1%
- viability, T/C (second compound 0.1 µM, first compound 3.16 µM): 18.3%
- viability, T/C [4]: 32.8%
- viability, T/C [5]: 20.1%
- viability, T/C [6]: 13.5%
- viability, T/C (second compound 0.316 µM, first compound 0.316 µM): 14.6%
- viability, T/C (second compound 0.316 µM, first compound 1 µM): 17.5%
- viability, T/C (second compound 0.316 µM, first compound 3.16 µM): 20%
- viability, T/C [7]: 30.3%
- viability, T/C [8]: 16.8%
- viability, T/C [9]: 12.9%
- viability, T/C (second compound 1 µM, first compound 0.316 µM): 15.5%
- viability, T/C (second compound 1 µM, first compound 1 µM): 18.7%
- viability, T/C (second compound 1 µM, first compound 3.16 µM): 23.2%
- viability, T/C [10]: 17.1%
- viability, T/C [11]: 12%
- viability, T/C [12]: 12.4%
- viability, T/C (second compound 3.16 µM, first compound 0.316 µM): 16.8%
- viability, T/C (second compound 3.16 µM, first compound 1 µM): 21.8%
- viability, T/C (second compound 3.16 µM, first compound 3.16 µM): 24.1%
- viability, T/C (second compound 10 µM, first compound 0.01 µM): 12.1%
- viability, T/C (second compound 10 µM, first compound 0.0316 µM): 12.7%
- viability, T/C (second compound 10 µM, first compound 0.1 µM): 14.7%
- viability, T/C (second compound 10 µM, first compound 0.316 µM): 19.1%
- viability, T/C (second compound 10 µM, first compound 1 µM): 21.3%
- viability, T/C (second compound 10 µM, first compound 3.16 µM): 24.8%
